Data as given in patent US8501960B2, “Saxagliptin intermediates, saxagliptin polymorphs, and processes for preparation thereof” (Assia Chemical Industries Ltd., priority 2010, dated 2013).

Experiment: Stability of crystalline compound M and Saxagliptin monohydrate form H-1 on storage, measured by HPLC
Format: physicochemical
Description: Unless stated otherwise, the HPLC peak % referred to herein were measured using a UV detection having a wavelength of 220 nm.
Instrumental and Chromatographic Conditions
Instrument: HPLC system equipped with UV detector.
• Flow rate: about 1 mL/min • Injection volume: about 10 μL • Column: Waters XBridge C8, 150 mm×4.6 mm, 3.5 μm • Column temperature: 25° C. • Detector: DAD (UV) at wavelengths 220 nm • Mobile phase: Gradient elution with Solution A and Solution B (see Table 1) • Solution A: Buffer solution. Dissolve in water about 24.0 g of sodium octyl-1-sulfonate in 1000 mL volumetric flask, make up to the volume with water and adjust pH to 3.3 with phosphoric acid. • Solution B: Acetonitrile, HPLC grade
• Stop time: 25 minutes • Post time: 5 minutes • Diluent: Prepare a solution of 25% acetonitrile, 25% methanol, and 50% of the buffer solution (the one that is used in gradient elution). The Following Chemicals (or Equivalent) Should Be Used:
• 1. Blank: Use the diluent. • 2. Sample preparation: Prepare SXG sample solution with concentration of about 1.0 mg/mL prepare in duplicate Procedure
Samples of crystalline compound M and Saxagliptin monohydrate form H-1 were prepared and the amount of Saxagliptin and the amount of cyclic amidine were measured by HPLC at time zero (=time 0). Samples of crystalline compound M and Saxagliptin monohydrate form H-1 were maintained for 2 weeks, 1 month and 2 months, at the conditions described in the following table. Afterwards, the amount of Saxagliptin and the amount of cyclic amidine was measured by HPLC.

Row | Structure (SMILES) | CA = cyclic amidine (amount by HPLC) (40° C./40% RH, 1 month) | SXG = Saxagliptin (amount by HPLC) (40° C./40% RH, 1 month) | CA = cyclic amidine (amount by HPLC) (40° C./40% RH, 2 months) | SXG = Saxagliptin (amount by HPLC) (40° C./40% RH, 2 months) | CA = cyclic amidine (amount by HPLC) (40° C./40% RH, 2 weeks) | SXG = Saxagliptin (amount by HPLC) (40° C./40% RH, 2 weeks) | CA = cyclic amidine (amount by HPLC) (40° C./40% RH, Time 0) | SXG = Saxagliptin (amount by HPLC) (40° C./40% RH, Time 0) | CA = cyclic amidine (amount by HPLC) (50° C./0% RH, 1 month) | SXG = Saxagliptin (amount by HPLC) (50° C./0% RH, 1 month) | CA = cyclic amidine (amount by HPLC) (50° C./0% RH, 2 months) | SXG = Saxagliptin (amount by HPLC) (50° C./0% RH, 2 months) | CA = cyclic amidine (amount by HPLC) (50° C./0% RH, 2 weeks) | SXG = Saxagliptin (amount by HPLC) (50° C./0% RH, 2 weeks) | CA = cyclic amidine (amount by HPLC) (50° C./0% RH, Time 0) | SXG = Saxagliptin (amount by HPLC) (50° C./0% RH, Time 0) | also measured
1 | CC(C)=N[C@H](C(=O)N1[C@H](C#N)C[C@@H]2C[C@@H]21)C12CC3CC(CC(O)(C3)C1)C2 [crystalline Compound M, (1S,3S,5S)-2-[(2S)-2-propan-2-ylideneamino-2-(3-hydroxy-1-adamantyl)acetyl]-2-azabicyclo[3.1.0]-hexane-3-carbonitrile] | CA = 0.50% | SXG = 99.0% | CA = 0.61% | SXG = 99.0% | CA = 0.53% | SXG = 99.0% | CA = 0.20% | SXG = 99.6% | CA = 0.27% | SXG = 99.4% | CA = 0.31% | SXG = 99.4% | CA = 0.25% | SXG = 99.6% | CA = 0.20% | SXG = 99.6% | chemical stability (compared to Saxagliptin monohydrate form H-1): enhanced chemical stability
2 | N#C[C@@H]1C[C@@H]2C[C@@H]2N1C(=O)[C@@H](N)C12CC3CC(CC(O)(C3)C1)C2 [Saxaglitpin base monohydrate, Form H-1, (1S,3S,5S)-2-((2S)-2-Amino-2-(3-hydroxyadamantan-1-yl)-acetyl)-2-azabicyclo[3.1.0]hexane-3-carbonitrile] | CA = 5.8% | SXG = 86.8% | CA = 11.5% | SXG = 77.4% | CA = 4.0% | SXG = 93.1% | CA = 0.50% | SXG = 98.9% | CA = 1.3% | SXG = 96.9% | CA = 2.1% | SXG = 94.8% | CA = 1.2% | SXG = 97.8% | CA = 0.50% | SXG = 98.9% | RRT1.14 (impurity amount by HPLC) (40° C./40% RH, 1 month): RRT1.14 = 4.1%; RRT1.14 (impurity amount by HPLC) (40° C./40% RH, 2 months): RRT1.14 = 7.7%; RRT1.14 (impurity amount by HPLC) (40° C./40% RH, 2 weeks): RRT1.14 = 2.1%; RRT1.14 (impurity amount by HPLC) (50° C./0% RH, 1 month): RRT1.14 = 1.1%; RRT1.14 (impurity amount by HPLC) (50° C./0% RH, 2 months): RRT1.14 = 2.51%; RRT1.14 (impurity amount by HPLC) (50° C./0% RH, 2 weeks): RRT1.14 = 0.4%
